Experimental data reported in ChEMBL document CHEMBL1201862, “PubChem BioAssay data set” (2004).
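1) Cells in 96-well plates. 2) Compound, 48 h, 5 concentrations. 3) Linear interpolation between surrounding doses. 4) Unreached endpoint = highest concentration. GI50 marks 50% less growth.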 Calls of active or inactive are those of the source. No stated cut-off is given here; in the data, active = GI50 up to about 1.1 µM and inactive = higher.

Assays:
Experiment in all cases: growth of human tumour cells (NCI), 48 h
SW-620 = system: SW-620
SNB-75 = system: SNB-75
UO-31 = system: UO-31
NCI-H460 = system: NCI-H460
HOP-92 = system: HOP-92
RPMI-8226 = system: RPMI-8226
CAKI-1 = system: CAKI-1
LOX IMVI = system: LOX IMVI
ACHN = system: ACHN
SK-MEL-28 = system: SK-MEL-28
MOLT-4 = system: MOLT-4
K562 = system: K562
SNB-19 = system: SNB-19
U-251 = system: U-251
IGROV-1 = system: IGROV-1
TK-10 = system: TK-10
NCI-H23 = system: NCI-H23
HOP-62 = system: HOP-62
SK-MEL-2 = system: SK-MEL-2

Measured: GI50

COC(=O)C1CCC(=O)C(Sc2ccccc2)C1 (stereo unspecified)
inactive: SW-620 > 100 µM | SNB-75 24.4 µM | UO-31 21.2 µM | NCI-H460 > 100 µM | HOP-92 50.1 µM | RPMI-8226 44.3 µM | CAKI-1 > 100 µM | LOX IMVI > 100 µM | ACHN > 100 µM | SK-MEL-28 > 100 µM | MOLT-4 27.6 µM | K562 63.1 µM | SNB-19 > 100 µM | U-251 > 100 µM | IGROV-1 51.6 µM | TK-10 > 100 µM | NCI-H23 > 100 µM

CN(C)CC(CO)(CN(C)C)CN(C)C
inactive: SW-620 > 100 µM | SNB-75 > 100 µM | UO-31 > 100 µM | NCI-H460 > 100 µM | HOP-92 > 100 µM | RPMI-8226 > 100 µM | CAKI-1 > 100 µM | ACHN > 100 µM | HOP-62 > 100 µM | SK-MEL-28 > 100 µM | MOLT-4 > 100 µM | K562 > 100 µM | SNB-19 > 100 µM | U-251 > 100 µM | IGROV-1 > 100 µM | TK-10 > 100 µM | NCI-H23 > 100 µM

O=C1c2ccccc2C2(c3ccc(Cl)cc3)N[C@H]3CCCC[C@@H]3N12 (stereo partly specified)
inactive: SW-620 > 100 µM | SNB-75 > 100 µM | UO-31 > 100 µM | HOP-92 > 100 µM | RPMI-8226 54.1 µM | CAKI-1 > 100 µM | LOX IMVI > 100 µM | ACHN > 100 µM | HOP-62 41.1 µM | SK-MEL-28 > 100 µM | MOLT-4 36.7 µM | K562 > 100 µM | SNB-19 35.4 µM | U-251 > 100 µM | IGROV-1 > 100 µM | TK-10 > 100 µM | NCI-H23 > 100 µM

CN(c1ccc(C(=O)c2ccc(N(C)S(C)(=O)=O)cc2)cc1)S(C)(=O)=O
inactive: SW-620 > 100 µM | SNB-75 83.6 µM | UO-31 75.7 µM | NCI-H460 > 100 µM | HOP-92 > 100 µM | RPMI-8226 > 100 µM | CAKI-1 > 100 µM | ACHN 77.8 µM | SK-MEL-28 54.6 µM | MOLT-4 47 µM | SK-MEL-2 > 100 µM | K562 49.3 µM | SNB-19 > 100 µM | U-251 > 100 µM | TK-10 > 100 µM | NCI-H23 34.5 µM

CC12C3C4C1C1C2C3C41CO (stereo unspecified)
inactive: SW-620 > 100 µM | SNB-75 34 µM | UO-31 > 100 µM | NCI-H460 > 100 µM | HOP-92 > 100 µM | CAKI-1 > 100 µM | LOX IMVI > 100 µM | ACHN > 100 µM | SK-MEL-28 > 100 µM | MOLT-4 > 100 µM | SK-MEL-2 > 100 µM | K562 > 100 µM | SNB-19 > 100 µM | U-251 > 100 µM | IGROV-1 > 100 µM | TK-10 > 100 µM

Cn1nc(-c2ccccc2)c(C(=O)/C=C/c2ccccc2)c(N2CCCC2)c1=O
inactive: SW-620 17.9 µM | UO-31 21.4 µM | NCI-H460 10.3 µM | HOP-92 1.64 µM | RPMI-8226 6.35 µM | LOX IMVI 15.1 µM | ACHN 12.6 µM | HOP-62 11.9 µM | SK-MEL-28 16.6 µM | MOLT-4 4.39 µM | K562 7.14 µM | U-251 12.9 µM | IGROV-1 21.2 µM | TK-10 22.5 µM | NCI-H23 10.4 µM

CC(C)N(C(=O)C1(O)c2ccccc2C=Cc2ccccc21)C(C)C
inactive: SW-620 17.3 µM | UO-31 21.1 µM | RPMI-8226 35.9 µM | CAKI-1 24.7 µM | ACHN 16.1 µM | HOP-62 19.2 µM | SK-MEL-28 17.2 µM | MOLT-4 23.7 µM | SK-MEL-2 17.1 µM | SNB-19 19.9 µM | U-251 16.8 µM | IGROV-1 14.8 µM | TK-10 18 µM | NCI-H23 17.6 µM

CCNC(=S)N/N=C/c1ccccn1
inactive: SW-620 6 µM | SNB-75 62.2 µM | UO-31 2.44 µM | NCI-H460 4.94 µM | LOX IMVI 7.18 µM | ACHN 5.69 µM | HOP-62 6.12 µM | SK-MEL-28 16.7 µM | MOLT-4 1.58 µM | SK-MEL-2 42.2 µM | K562 2.86 µM | SNB-19 19.6 µM | U-251 6.55 µM | IGROV-1 5.11 µM | TK-10 25.2 µM | NCI-H23 6.56 µM

Cn1c(=O)c2[nH]c(/N=N/N3CCN(CCO)CC3)nc2n(C)c1=O
inactive: SW-620 > 100 µM | UO-31 > 100 µM | NCI-H460 > 100 µM | HOP-92 > 100 µM | RPMI-8226 > 100 µM | CAKI-1 > 100 µM | LOX IMVI > 100 µM | ACHN > 100 µM | HOP-62 > 100 µM | SK-MEL-28 > 100 µM | MOLT-4 > 100 µM | SK-MEL-2 > 100 µM | K562 > 100 µM | SNB-19 > 100 µM | U-251 > 100 µM | IGROV-1 > 100 µM | TK-10 > 100 µM | NCI-H23 > 100 µM
